Converted amounts (≈) assume the structure as drawn. Read-outs that look alike come from different tables or passages of the source.
Key:
[1] = tested on: Klebsiella pneumonia MTCC 618; experiment: Antibacterial MIC, CLSI M07-A10 dilution; format: cell-based; details: Klebsiella pneumoniae, MTCC618
[2] = tested on: Pseudomonas aeruginosa MTCC 741; experiment: Antibacterial MIC, CLSI M07-A10 dilution; format: cell-based; details: MTCC741
[3] = tested on: Staphylococcus aureus ATCC BAA-1556 (MERSA resistant); experiment: Antibacterial MIC, CLSI M07-A10 dilution; format: cell-based; details: ATCCBAA1556
[4] = tested on: Bacillus subtilis MTCC 441; experiment: Antibacterial MIC, CLSI M07-A10 dilution; format: cell-based; details: MTCC441
[5] = tested on: Mycobacterium tuberculosis H37Rv strain; experiment: Anti-tubercular alamar blue microplate MIC; format: cell-based; details: 168 h, M. tuberculosis H37Rv, 7 days at 37° C., read-out: anti-mycobacterial activity (MIC)
[6] = tested on: Escherichia coli MTCC 443; experiment: Antibacterial MIC, CLSI M07-A10 dilution; format: cell-based; details: MTCC443
[7] = molecular target: T1, DNA gyrase from E. coli (Escherichia coli, UniProt P0AES4+P0AES6); experiment: E. coli DNA gyrase inhibition (Inspiralis assay); format: biochemical
T1 construct: purchased Inspiralis
Method: Inhibitory potencies were investigated utilizing the Inspiralis assay on streptavidin-coated 96-well microtiter plates. First, the plates were rehydrated with buffer (20 mM Tris-HCl with pH 7.6, 0.01% w/v BSA, 0.05% v/v Tween 20, 137 mM NaCl) and the biotinylated oligonucleotide was then immobilized. After washing off the unbound oligonucleotide, the enzyme test was performed. […] Reaction solutions were incubated at 37° C. for 30 min. After that, the TF buffer (50 mM NaOAc with pH 5.0, 50 mM NaCl and 50 mM MgCl2) was added to terminate the enzymatic reaction. […] The fluorescence was measured with a microplate reader (BioTek Synergy H4, excitation: 485 nm, emission: 535 nm). Initial screening was done at 100 or 10 μM concentration of inhibitors. […] GraphPad Prism software was used to calculate the IC50 values. The result is given as the average value of three independent measurements.

[8] = tested on: Staphylococcus aureus ATCC 29213; experiment: Antibacterial MIC, CLSI M07-A10 dilution; format: cell-based; details: ATCC29213
[9] = tested on: Staphylococcus epidermidis; experiment: Antibacterial MIC, CLSI M07-A10 dilution; format: cell-based
[10] = tested on: Enterococcus faecium ATCC 35667; experiment: Antibacterial MIC, CLSI M07-A10 dilution; format: cell-based; details: ATCC35667
[11] = tested on: Enterococcus faecium ATCC 51559 (VRE resistant); experiment: Antibacterial MIC, CLSI M07-A10 dilution; format: cell-based

T1 sequence (P0AES4 whole entry, one chain of several): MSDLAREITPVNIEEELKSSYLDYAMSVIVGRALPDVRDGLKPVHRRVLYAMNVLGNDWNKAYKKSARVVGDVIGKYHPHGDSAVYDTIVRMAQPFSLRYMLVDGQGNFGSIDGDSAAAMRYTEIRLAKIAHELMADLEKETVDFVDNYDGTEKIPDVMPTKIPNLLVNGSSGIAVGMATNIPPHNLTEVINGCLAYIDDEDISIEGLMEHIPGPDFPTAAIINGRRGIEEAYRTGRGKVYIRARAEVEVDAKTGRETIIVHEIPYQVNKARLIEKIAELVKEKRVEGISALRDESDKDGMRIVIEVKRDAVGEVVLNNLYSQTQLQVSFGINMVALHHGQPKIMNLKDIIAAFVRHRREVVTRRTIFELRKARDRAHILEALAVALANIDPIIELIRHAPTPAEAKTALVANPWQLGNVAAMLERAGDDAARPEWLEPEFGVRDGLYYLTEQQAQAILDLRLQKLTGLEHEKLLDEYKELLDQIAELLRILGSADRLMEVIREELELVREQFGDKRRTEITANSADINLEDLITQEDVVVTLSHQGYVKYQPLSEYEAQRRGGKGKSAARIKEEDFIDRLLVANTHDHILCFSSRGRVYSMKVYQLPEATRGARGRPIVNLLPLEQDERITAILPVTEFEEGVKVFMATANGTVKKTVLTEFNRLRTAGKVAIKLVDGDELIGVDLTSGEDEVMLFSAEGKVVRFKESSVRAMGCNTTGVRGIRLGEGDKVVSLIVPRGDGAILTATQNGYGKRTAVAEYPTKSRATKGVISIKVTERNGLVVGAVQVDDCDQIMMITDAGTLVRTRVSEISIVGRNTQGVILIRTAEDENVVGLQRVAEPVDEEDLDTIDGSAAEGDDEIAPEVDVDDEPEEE

Row | SMILES | MIC ([1]; Klebsiella pneumonia MTCC 618, read-out: MIC) | MIC [2] | MIC [3] | MIC [4] | MIC [5] | MIC [6] | IC50 [7] | MIC [8] | MIC [9] | MIC [10] | MIC [11] | MIC [1]
1 | CCCCCN(C)Cc1cc(C(=O)O)ccc1N1C(=O)c2nc3c(NC)cc(F)cc3c(O)c2C1=O [Compound 12, 4-(7-fluoro-9-hydroxy-5-(methylamino)-1,3-dioxo-1,3-dihydro-2H-pyrrolo[3,4-b]quinolin-2-yl)-3-((methyl(pentyl)amino)methyl)benzoic acid] | 1 µg/mL (≈ 2.02 µM) | 1 µg/mL (≈ 2.02 µM) | 2 µg/mL (≈ 4.04 µM) | 0.5 µg/mL (≈ 1.01 µM) | 4 µg/mL (≈ 8.09 µM) | 4 µg/mL (≈ 8.09 µM) | 16 nM | 1 µg/mL (≈ 2.02 µM) | 0.75 µg/mL (≈ 1.52 µM) | 0.5 µg/mL (≈ 1.01 µM) | 0.75 µg/mL (≈ 1.52 µM) | 
2 | CN[C@H](CC(C)C)C(=O)N[C@H]1C(=O)N[C@@H](CC(N)=O)C(=O)N[C@H]2C(=O)N[C@H]3C(=O)N[C@H](C(=O)N[C@H](C(=O)O)c4cc(O)cc(O)c4-c4cc3ccc4O)[C@H](O)c3ccc(c(Cl)c3)Oc3cc2cc(c3O[C@@H]2O[C@H](CO)[C@@H](O)[C@H](O)[C@H]2O[C@H]2C[C@](C)(N)[C@H](O)[C@H](C)O2)Oc2ccc(cc2Cl)[C@H]1O [Vancomycin, reference compound] |  |  |  |  |  |  |  |  |  |  |  | > 128 µg/mL

Source: patent US11932640B1, “Pyrrolo[3,4-b]quinoline compounds as antibacterial agents” (KING FAISAL UNIVERSITY, priority 2023, dated 2024)
